According to a melting point compilation (Tetko et al.; mined from patent text by program, amines drawn as free bases though some values may be those of a salt):

Question: With `N#Cc1cc([N+](=O)[O-])ccc1C=C1C=CN(Cc2ccccc2[N+](=O)[O-])C=C1` as the molecule, how does the melting point read?
Answer: 193 to 201 °C

Question: Which melting point does the source give for `Cc1ccc(C(=S)c2cc(C(C)(C)C)c(O)c(C(C)(C)C)c2)cc1` here?
Answer: 135 to 136 °C

Question: Which melting point does the source give for `CCOC(=O)Cc1ccc2c(c1)C(O)c1ccccc1O2` (stereo not given) here?
Answer: 214 to 219 °C

Question: Which melting point does the source give for `CC(C)(C)OC(=O)c1cccc(C#N)n1` here?
Answer: 156 to 157 °C

Question: Which melting point does the source give for `CCOC(=O)c1nc2cc(NC(=O)OC(C)(C)C)ccn2n1` here?
Answer: 220 to 222 °C

Question: With `O=C(O)Cc1cc(-c2ccc(Cl)cc2)n(-c2ccc(OCc3ccc4ccccc4n3)cc2)n1` as the molecule, how does the melting point read?
Answer: 228 to 230 °C

Question: With `O=C1CCC(N2C(=O)c3cccc(OCc4ccc(CN5CCC(c6ccc(F)cc6F)CC5)cc4)c3C2=O)C(=O)N1` (stereo not given) as the molecule, how does the melting point read?
Answer: 153 to 155 °C

Question: For `COc1ccc(-c2cc(C=CC(=O)O)cs2)cc1C(C)(C)C`, which melting point is on record?
Answer: 197 to 198 °C

Question: With `CC(C)C(NC(=O)c1ccc(C(=O)NCC(=O)OCc2ccccc2)cc1)C(=O)N1CCCC1C(=O)NC(C(=O)C(F)(F)F)C(C)C` (mixture of isomers) as the molecule, how does the melting point read?
Answer: 77 to 78 °C

Question: For `CCCc1nc2c(N)nc3cc(OCCNC(=O)OC(C)(C)C)ccc3c2s1`, which melting point is on record?
Answer: 136 to 139 °C

Question: Which melting point does the source give for `O=[N+]([O-])c1cccc(-c2nc(O)cc3cccnc23)c1` here?
Answer: 262 to 265 °C

Question: For `CNC(=O)c1cc(C(=O)NOCC2CC2)c(Nc2ccc(I)cc2C)c(F)c1F`, which melting point is on record?
Answer: 198 to 202 °C

Question: Which melting point does the source give for `O=c1[nH]c2ncc(-c3ccc4[nH]cnc4c3)nc2n1CCC1CCOCC1` here?
Answer: 264 to 265 °C

Question: For `CCOC(=O)c1nc(-c2ccccc2)[nH]c1N=NN(C)C`, which melting point is on record?
Answer: 171 °C

Question: With `CCCCN(Cc1ccc(-c2ccccc2-c2nnn[nH]2)cc1)c1ncncc1C(=O)OCOC(C)=O` as the molecule, how does the melting point read?
Answer: 65 to 69 °C

Question: With `Cc1cc2c(cc1S(=O)(=O)c1ccc(F)cc1)OC(C(=O)O)O2` (stereo not given) as the molecule, how does the melting point read?
Answer: 157 to 158 °C

Question: For `CCCCc1ccc(N2CCN(C(=O)Nc3nc4ccccc4nc3OC)CC2)cc1`, which melting point is on record?
Answer: 124 to 126 °C

Question: With `CCOC(=O)CCCN(C(=O)c1ccc(Cl)cc1)c1cccc2ccc(OC)cc12` as the molecule, how does the melting point read?
Answer: 92 to 94 °C

Question: With `CCCc1c(OCc2ccccc2C(=O)NCCCCc2cccnc2)ccc(C(C)=O)c1O` as the molecule, how does the melting point read?
Answer: 135 to 139 °C

Question: With `Cc1cc(-n2ccnc2)c2cccc(OCc3c(Cl)ccc(S(=O)(=O)N4CCC[C@H]4C(=O)N(C)C)c3Cl)c2n1` as the molecule, how does the melting point read?
Answer: 88 °C

Question: For `O=C(NCc1ccccn1)Nc1cc(N2CC3(CCCCC3)CC2=O)ccn1`, which melting point is on record?
Answer: 191 to 192 °C

Question: With `CCCCOc1ccc(Cc2nn(-c3ccccc3Cl)c(=S)o2)cc1` as the molecule, how does the melting point read?
Answer: 69 °C

Question: Which melting point does the source give for `CC(C)(C)OC(=O)N[C@@H](CC1CCCCC1)[C@@H]1CO1` here?
Answer: 58 to 59.5 °C

Question: With `Cn1c(=O)cc(-c2nc(-c3ccccc3)cs2)c2cc(C(=O)c3ccc(Cl)cc3)ccc21` as the molecule, how does the melting point read?
Answer: 216 °C

Question: Which melting point does the source give for `CCOC(=O)c1cc(C(=O)NC)nc(C(=O)NC)c1` here?
Answer: 183 to 184 °C

Question: Which melting point does the source give for `CCCCCCCCCCCCCCCCOC(=O)c1cnc(C(=O)OCCCCCCCCCCCCCCCC)c2ccccc12` here?
Answer: 80.7 to 81.4 °C

Question: With `CC(C)CNc1c2c(nc3cn[nH]c13)CCCC2` as the molecule, how does the melting point read?
Answer: 124 to 127 °C

Question: With `NC(=O)N1CCN(c2nn(-c3ccccc3)c3ccccc23)CC1` as the molecule, how does the melting point read?
Answer: 151 to 153 °C

Question: For `COCCn1ccc2ccc(NC(=O)/C=C/c3ccc(C(C)(C)C)cc3)cc21`, which melting point is on record?
Answer: 133 °C

Question: Which melting point does the source give for `O=C1Nc2ccccc2C12COc1ccc3c(c12)N(Cc1cccnc1)ON3` (stereo not given) here?
Answer: 230 to 232 °C

Question: With `COc1cccc2c(Nc3ccc(C(=O)NC4CCN(Cc5ccccc5)CC4)cc3)c(C(=O)NC3CCN(C)CC3)cnc12` as the molecule, how does the melting point read?
Answer: 230 to 232 °C

Question: For `Cc1csc2[nH]c(=O)c(=O)[nH]c12`, which melting point is on record?
Answer: > 320 °C

Question: For `Cc1c(-c2ccnc(C(F)(F)F)c2)sc2nc(N)[nH]c(=O)c12`, which melting point is on record?
Answer: 335 to 355 °C

Question: Which melting point does the source give for `CCC(=O)Oc1ccc(C(=O)c2ccccc2)cc1` here?
Answer: 53.5 to 54.5 °C

Question: For `O=C(C#Cc1ccc(Cl)cc1)Nc1ccc2c(ccn2CCN2CCCC2)c1`, which melting point is on record?
Answer: 127 to 129 °C

Question: For `CC1(C)Oc2ccc(C(=O)CO)cc2[C@H](NC(=O)c2cc(F)cc(F)c2)[C@H]1O`, which melting point is on record?
Answer: 179 °C

Question: Which melting point does the source give for `NC(=O)c1ncn2c(-c3ccc(N4CCOCC4)cc3)ccnc12` here?
Answer: 274 to 277 °C

Question: For `CCOC(=O)c1cc2c(ccc3nc(O)c(O)nc32)s1`, which melting point is on record?
Answer: 357 °C

Question: Which melting point does the source give for `CCCCCCCN(CC(c1ccccc1)c1ccccc1)C(=O)Nc1c(C)cccc1C` here?
Answer: 171 to 173 °C

Question: Which melting point does the source give for `CC(=O)NC[C@H]1CN(c2ccc(C(=O)c3ccc4ccc(C)cn34)cc2)C(=O)O1` here?
Answer: 237 to 239 °C

Question: Which melting point does the source give for `Cc1ccc2c3c(ccc2n1)OC[C@H](CNC(=O)C1CCc2c([nH]c4ccc(F)cc24)C1)O3` (stereo not given in full) here?
Answer: 92 to 96 °C

Question: For `C=CCn1cc(Cl)cnc1=O`, which melting point is on record?
Answer: 130 to 131 °C

Question: For `COC(=O)c1sccc1NC(=O)CC#N`, which melting point is on record?
Answer: 146 °C

Question: With `COc1cccc(OCc2cccc(OCc3ccc4ccccc4n3)c2)c1C(=O)O` as the molecule, how does the melting point read?
Answer: 149 to 152 °C

Question: With `CC(=NO)c1ncnc(OC(C)C)c1C` as the molecule, how does the melting point read?
Answer: 95.4 to 96.5 °C

Question: Which melting point does the source give for `CC(C)(O)C(C)(O)Cc1ccccc1` (stereo not given) here?
Answer: 72 to 74 °C

Question: Which melting point does the source give for `COc1cc2c(cc1OC(C)C)-c1c(-c3cccs3)c3c(n1CC2)C(=O)N(C(C)C)CCNC3` here?
Answer: 242 to 243 °C

Question: With `CC(C)N1CC(CCN2CCN(c3ccccc3)CC2)OC1=O` (stereo not given) as the molecule, how does the melting point read?
Answer: 74 to 75 °C

Question: For `O=C(C=Cc1ccc(Br)cc1)N1CCc2c([nH]c3ccccc23)C1c1ccc2c(c1)OCO2` (stereo not given), which melting point is on record?
Answer: 188 to 190 °C

Question: Which melting point does the source give for `COc1ccc(-c2c(Cl)c(CN3C(=O)CCC3=O)nc3sc4c(c23)CCC(C(=O)O)C4)cc1` (stereo not given) here?
Answer: 258 to 259 °C

Question: For `O=S(=O)(c1ccccc1)N1CCC(C(=NCCc2ccccc2)c2ccc(F)cc2)CC1`, which melting point is on record?
Answer: 123 to 126 °C

Question: Which melting point does the source give for `CCOc1ccccc1OCC1CN=C(N)O1` (stereo not given) here?
Answer: 130 °C

Question: For `COc1ncccc1C(=O)N(C(C)C)C(C)C`, which melting point is on record?
Answer: 109 °C

Question: With `NC(CCC(=O)O)c1cccs1` (stereo not given) as the molecule, how does the melting point read?
Answer: 148 to 156 °C

Question: With `Cc1nc(-c2ccccc2)c(CC(C)(C)C(=O)O)o1` as the molecule, how does the melting point read?
Answer: 129 to 130 °C

Question: Which melting point does the source give for `CC(=O)N=c1sc(C)cn1CC(O)c1cccs1` (stereo not given) here?
Answer: 106 to 107 °C

Question: Which melting point does the source give for `N#CCOC(=O)c1ccc(C(c2ccccc2)c2ccccc2)cn1` here?
Answer: 95 to 98 °C

Question: With `N#CSCCNc1c(Cl)cccc1[N+](=O)[O-]` as the molecule, how does the melting point read?
Answer: 92 to 94 °C

Question: Which melting point does the source give for `O=[N+]([O-])c1ccc2c(c1)S(=O)(=O)c1cc([N+](=O)[O-])ccc1-2` here?
Answer: 282 to 287 °C

Question: For `CN(C)Cc1cn(CCC(=O)O)c(=S)n1C1CCc2ccccc2C1` (stereo not given), which melting point is on record?
Answer: 171 to 174 °C

Question: With `CS(=O)c1cn(-c2c(Cl)cc(C(F)(F)F)cc2Cl)nc1C=NO` (stereo not given) as the molecule, how does the melting point read?
Answer: 239 to 240 °C

Question: Which melting point does the source give for `O=C(Nc1ccc(-n2nc(C(F)(F)F)cc2C(F)(F)F)cn1)c1ccccc1F` here?
Answer: 153 to 155 °C

Question: Which melting point does the source give for `CCCCc1nc(S(=O)CC)c(C(=O)O)n1Cc1ccc(-c2ccccc2C(=O)O)cc1` (stereo not given) here?
Answer: 186 °C

Question: For `CS(=O)c1ccc(-c2c(-c3ccncc3)nc3n2CCC3)cc1` (stereo not given), which melting point is on record?
Answer: 180 to 182 °C

Question: For `OC/C=C/c1ccc(Cc2cccnc2)cc1`, which melting point is on record?
Answer: 81 to 82 °C

Question: For `CSC[C@@H](NC(=O)OCc1ccccc1)[C@@H]1COC(C)(C)O1`, which melting point is on record?
Answer: 70 to 71 °C

Question: For `CSc1nn(-c2c(Cl)cc(Cl)cc2Cl)c(N(C)C)c1CC1C(=O)NC(=O)c2ccccc21` (stereo not given), which melting point is on record?
Answer: 186 to 187 °C

Question: With `Cc1nc(N2CCc3ccccc3CC2)c(C#N)c(=O)n1CC#N` as the molecule, how does the melting point read?
Answer: > 200 °C

Question: With `CC(C)OC(=O)c1ccccc1C(=O)O` as the molecule, how does the melting point read?
Answer: 73 to 77 °C

Question: With `O=C(CC(=O)c1ccc(-c2ccccc2)cc1)Nc1ccc(OCCN2CCCC2)c(C(=O)O)c1` as the molecule, how does the melting point read?
Answer: 236 to 240 °C
